Measurements as given in PubChem BioAssay (NCI).
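Grown in 96-well plates, cells were treated for 48 hours with each compound at five concentrations. Insufficient inhibition: endpoint recorded as highest concentration tested. TGI marks complete inhibition of growth.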

Experiments:
Assay in all cases: DTP human tumour cell line panel, 48 h
PC-3 prostate = tested on: PC-3 prostate
NCI-H522 lung = tested on: NCI-H522 lung
LOX IMVI melanoma = tested on: LOX IMVI melanoma
HCT-15 colon = tested on: HCT-15 colon
OVCAR-5 ovarian = tested on: OVCAR-5 ovarian
A498 renal = tested on: A498 renal
NCI-H460 lung = tested on: NCI-H460 lung
MDA-N = tested on: MDA-N
HCT-116 colon = tested on: HCT-116 colon
OVCAR-4 ovarian = tested on: OVCAR-4 ovarian
DU-145 prostate = tested on: DU-145 prostate
SK-MEL-5 melanoma = tested on: SK-MEL-5 melanoma
786-0 renal = tested on: 786-0 renal
SF-539 CNS = tested on: SF-539 CNS
SF-295 CNS = tested on: SF-295 CNS
SF-268 CNS = tested on: SF-268 CNS
BT-549 breast = tested on: BT-549 breast
MOLT-4 leukemia = tested on: MOLT-4 leukemia
SNB-75 CNS = tested on: SNB-75 CNS
NCI-H23 lung = tested on: NCI-H23 lung
SK-MEL-28 melanoma = tested on: SK-MEL-28 melanoma
UACC-257 melanoma = tested on: UACC-257 melanoma
SN12C renal = tested on: SN12C renal
EKVX NSCLC = tested on: EKVX NSCLC
U251 CNS = tested on: U251 CNS
OVCAR-3 ovarian = tested on: OVCAR-3 ovarian
COLO 205 colon = tested on: COLO 205 colon
M14 melanoma = tested on: M14 melanoma
CCRF-CEM leukemia = tested on: CCRF-CEM leukemia
CAKI-1 renal = tested on: CAKI-1 renal
SK-OV-3 ovarian = tested on: SK-OV-3 ovarian
A549 NSCLC = tested on: A549 NSCLC
HT29 colon = tested on: HT29 colon
MCF7 breast = tested on: MCF7 breast
K-562 leukemia = tested on: K-562 leukemia
MDA-MB-231 breast = tested on: MDA-MB-231 breast
ACHN renal = tested on: ACHN renal
UO-31 renal = tested on: UO-31 renal
RPMI-8226 leukemia = tested on: RPMI-8226 leukemia
OVCAR-8 ovarian = tested on: OVCAR-8 ovarian
HL-60(TB) leukemia = tested on: HL-60(TB) leukemia
HOP-62 NSCLC = tested on: HOP-62 NSCLC
MDA-MB-435 = tested on: MDA-MB-435
SR leukemia = tested on: SR leukemia
MALME-3M melanoma = tested on: MALME-3M melanoma
T-47D breast = tested on: T-47D breast
NCI-H226 lung = tested on: NCI-H226 lung
IGROV1 ovarian = tested on: IGROV1 ovarian
KM12 colon = tested on: KM12 colon
HCC-2998 colon = tested on: HCC-2998 colon
HS 578T breast = tested on: HS 578T breast
UACC-62 melanoma = tested on: UACC-62 melanoma
HOP-92 NSCLC = tested on: HOP-92 NSCLC
TK-10 renal = tested on: TK-10 renal
RXF 393 renal = tested on: RXF 393 renal
SW-620 colon = tested on: SW-620 colon
NCI/ADR-RES ovarian = tested on: NCI/ADR-RES ovarian
SK-MEL-2 melanoma = tested on: SK-MEL-2 melanoma
SNB-19 CNS = tested on: SNB-19 CNS

Cc1ccc(S(=O)(=O)N/N=C2\CC3CC4CCC2C4C3)cc1 (centres undefined)
TGI (PC-3 prostate): > 100 µM
TGI (NCI-H522 lung): > 100 µM
TGI (LOX IMVI melanoma): > 100 µM
TGI (HCT-15 colon): > 100 µM
TGI (OVCAR-5 ovarian): > 100 µM
TGI (A498 renal): > 100 µM
TGI (NCI-H460 lung): > 100 µM
TGI (MDA-N): > 100 µM
TGI (HCT-116 colon): > 100 µM
TGI (OVCAR-4 ovarian): > 100 µM
TGI (DU-145 prostate): > 100 µM
TGI (SK-MEL-5 melanoma): > 100 µM
TGI (786-0 renal): > 100 µM
TGI (SF-539 CNS): > 100 µM
TGI (SF-295 CNS): > 100 µM
TGI (SF-268 CNS): > 100 µM
TGI (BT-549 breast): > 100 µM
TGI (MOLT-4 leukemia): > 100 µM
TGI (SNB-75 CNS): > 100 µM
TGI (NCI-H23 lung): > 100 µM
TGI (SK-MEL-28 melanoma): > 100 µM
TGI (UACC-257 melanoma): > 100 µM
TGI (SN12C renal): > 100 µM
TGI (EKVX NSCLC): > 100 µM
TGI (U251 CNS): > 100 µM
TGI (OVCAR-3 ovarian): > 100 µM
TGI (COLO 205 colon): > 100 µM
TGI (M14 melanoma): > 100 µM
TGI (CCRF-CEM leukemia): > 100 µM
TGI (CAKI-1 renal): > 100 µM
TGI (SK-OV-3 ovarian): > 100 µM
TGI (A549 NSCLC): > 100 µM
TGI (HT29 colon): > 100 µM
TGI (MCF7 breast): > 100 µM
TGI (K-562 leukemia): > 100 µM
TGI (MDA-MB-231 breast): > 100 µM
TGI (ACHN renal): > 100 µM
TGI (UO-31 renal): > 100 µM
TGI (RPMI-8226 leukemia): > 100 µM
TGI (OVCAR-8 ovarian): > 100 µM
TGI (HL-60(TB) leukemia): > 100 µM
TGI (HOP-62 NSCLC): > 100 µM
TGI (MDA-MB-435): > 100 µM
TGI (SR leukemia): > 100 µM
TGI (MALME-3M melanoma): > 100 µM
TGI (T-47D breast): > 100 µM
TGI (NCI-H226 lung): > 100 µM
TGI (IGROV1 ovarian): > 100 µM
TGI (KM12 colon): > 100 µM
TGI (HCC-2998 colon): > 100 µM
TGI (HS 578T breast): > 100 µM
TGI (UACC-62 melanoma): > 100 µM
TGI (HOP-92 NSCLC): > 100 µM
TGI (TK-10 renal): > 100 µM
TGI (RXF 393 renal): > 100 µM
TGI (SW-620 colon): > 100 µM

COC(=O)C1=C(O)CCCC(C2CCCCC(=O)C2C(=O)OC)=C1 (centres undefined)
TGI (PC-3 prostate): > 100 µM
TGI (LOX IMVI melanoma): > 100 µM
TGI (HCT-15 colon): > 100 µM
TGI (OVCAR-5 ovarian): > 100 µM
TGI (A498 renal): 58.7 µM
TGI (NCI-H460 lung): 39.6 µM
TGI (MDA-N): > 100 µM
TGI (HCT-116 colon): > 100 µM
TGI (OVCAR-4 ovarian): > 100 µM
TGI (DU-145 prostate): > 100 µM
TGI (SK-MEL-5 melanoma): > 100 µM
TGI (786-0 renal): > 100 µM
TGI (SF-539 CNS): > 100 µM
TGI (SF-295 CNS): > 100 µM
TGI (BT-549 breast): > 100 µM
TGI (MOLT-4 leukemia): > 100 µM
TGI (SNB-75 CNS): > 100 µM
TGI (NCI-H23 lung): > 100 µM
TGI (SK-MEL-28 melanoma): > 100 µM
TGI (UACC-257 melanoma): > 100 µM
TGI (SN12C renal): > 100 µM
TGI (EKVX NSCLC): > 100 µM
TGI (U251 CNS): > 100 µM
TGI (OVCAR-3 ovarian): > 100 µM
TGI (NCI/ADR-RES ovarian): > 100 µM
TGI (COLO 205 colon): > 100 µM
TGI (M14 melanoma): > 100 µM
TGI (CCRF-CEM leukemia): 89.3 µM
TGI (CAKI-1 renal): > 100 µM
TGI (SK-OV-3 ovarian): > 100 µM
TGI (A549 NSCLC): > 100 µM
TGI (HT29 colon): > 100 µM
TGI (MCF7 breast): 70.4 µM
TGI (K-562 leukemia): > 100 µM
TGI (MDA-MB-231 breast): > 100 µM
TGI (ACHN renal): > 100 µM
TGI (UO-31 renal): > 100 µM
TGI (RPMI-8226 leukemia): > 100 µM
TGI (OVCAR-8 ovarian): > 100 µM
TGI (SK-MEL-2 melanoma): > 100 µM
TGI (SNB-19 CNS): > 100 µM
TGI (MDA-MB-435): > 100 µM
TGI (SR leukemia): > 100 µM
TGI (T-47D breast): > 100 µM
TGI (NCI-H226 lung): > 100 µM
TGI (IGROV1 ovarian): > 100 µM
TGI (KM12 colon): > 100 µM
TGI (HCC-2998 colon): 91.6 µM
TGI (UACC-62 melanoma): 42.3 µM
TGI (HOP-92 NSCLC): > 100 µM
TGI (TK-10 renal): > 100 µM
TGI (RXF 393 renal): > 100 µM
TGI (SW-620 colon): > 100 µM
